Assay [1] has as its system HeLa cells. Description: GFP-NLS and mCherry-NLS co-transduction, visualization by microscopy. The assay is classed as cell-based, Human. Conditions: each cargo 5 μM; shuttle 35 μM; 10 seconds, Protocol B. How it is done: The media in wells was removed, cells were washed once with PBS previously warmed at 37° C., and the shuttle agent/cargo mixture was then added to cover all cells for the desired length of time. The shuttle agent/cargo mixture in wells was removed, the cells were washed once with PBS, and fresh complete medium was added. Before analysis, the cells were washed once with PBS and fresh complete medium was added.
• GFP-NLS recombinant protein (5 μM; see Example 5.1) and mCherry™-NLS recombinant protein (5 μM) were co-incubated together with 35 μM of His-CM18-PTD4, and then exposed to HeLa cells for 10 seconds using Protocol B as described in Example 9.1. After washing steps, the cells were immediately visualized by bright field and fluorescence microscopy at 20× magnifications as described in Example 3.2. Sample results are shown in FIG. 28, in which corresponding images showing bright field (FIG. 28A), DAPI fluorescence (FIG. 28B), GFP-NLS fluorescence (FIG. 28C), and mCherry™-NLS fluorescence (FIG. 28D) are shown. White triangle windows indicate examples of areas of co-labelling between GFP-NLS and mCherry™ fluorescence signals in cell nuclei. […] 9.7 GFP-NLS Transduction by his-CM18-PTD4 in THP-1 Suspension Cells: Flow Cytometry

Assay [2] relates to HeLa cells. As to the kind of experiment: HOXB4-WT transduction, immuno-labelling and visualization by microscopy. In kind it is cell-based, Human. Conditions: HOXB4-WT 25 μM; shuttle 35 μM; 10 seconds, Protocol B. How it is done:
Adherent cells were plated on a sterile glass strip at 1.5×10^5 cells per well in a 24-plate well and incubated overnight at 37° C. For fixation, cells were incubated in 500 μL per well of formaldehyde (3.7% v/v) for 15 minutes at room temperature, and washed 3 times for 5 minutes with PBS. For permeabilization, cells were incubated in 500 μL per well of Triton™ X-100 (0.2%) for 10 minutes at room temperature, and washed 3 times for 5 minutes with PBS. For blocking, cells were incubated in 500 μL per well of PBS containing 1% BSA (PBS/BSA) for 60 minutes at room temperature. Primary mouse monoclonal antibody was diluted PBS/BSA (1%). Cells were incubated in 30 μL of primary antibody overnight at 4° C. Cells were washed 3 times for 5 minutes with PBS. Secondary antibody was diluted in PBS/BSA (1%) and cells were incubated in 250 μL of secondary antibody 30 minutes at room temperature in the dark. Cells were washed 3 times for 5 minutes with PBS. […]
Recombinant HOXB4-WT transcription factor (25 μM; Example 14.1) was co-incubated with 35 μM of His-CM18-PTD4 and exposed to HeLa cells for 10 seconds using Protocol B as described in Example 9.1. […] The cells were visualized by bright field and fluorescence microscopy at 20× and 40× magnifications as described in Example 3.2, and sample results are shown in FIG. 45. […]

A further assay deals with rat parietal cortex. Description: In vivo GFP-NLS delivery by stereotaxic injection, fluorescence microscopy of brain slices. Conditions: shuttle 20 μM + GFP-NLS 20 μM, 5 μL injected over 10 min; sacrificed 2 h after surgery. How it is done:
In separate sterile 1.5-mL tubes, shuttle agent His-CM18-PTD4 was diluted in sterile distilled water at room temperature. […] One negative control was included for the experiment, which corresponds to the injection of the GFP-NLS alone.
Bilateral injections were performed in the parietal cortex of three rats. In the left parietal cortex (ipsilateral), a mix composed of the shuttle agent (20 μM) and the GFP-NLS (20 μM) was injected, and in the right parietal cortex (contralateral), only the GFP-NLS (20 μM) was injected as a negative control. For surgical procedures, […] were anesthetized with isoflurane. Then the animal was placed in a stereotaxic frame, and the skull surface was exposed. Two holes were drilled at the appropriate sites to allow bilateral infusion of the shuttle/cargo mix or GFP-NLS alone (20 μM) with 5-μL Hamilton syringe. Antero-posterior (AP), lateral (L), and dorso-ventral (DV) coordinates were taken relative to the bregma: (a) AP+0.48 mm, L±3 mm, V-5 mm; (b) AP-b 2 mm, L±1.3 mm, V-1.5 mm; (c) AP-2.6 mm, L 1.5 mm, V-1.5 mm. The infused volume of the shuttle/cargo mix or cargo alone was 5 μL per injection site and the injection was performed for 10 minutes. […]
Dorso-ventral rat brain slices were collected and analysed by fluorescence microscopy and results are shown in at 4× (FIG. 48A), 10× (FIG. 48C) and 20× (FIG. 48D) magnifications. […]

Take `CC[C@H](C)[C@H](NC(=O)[C@H](CCCCN)NC(=O)[C@H](CCCCN)NC(=O)[C@H](Cc1ccccc1)NC(=O)[C@H](CC(C)C)NC(=O)[C@H](CCCCN)NC(=O)[C@H](Cc1c[nH]c2ccccc12)NC(=O)[C@H](CCCCN)NC(=O)[C@H](Cc1c[nH]cn1)NC(=O)[C@H](Cc1c[nH]cn1)NC(=O)[C@H](Cc1c[nH]cn1)NC(=O)[C@H](Cc1c[nH]cn1)NC(=O)[C@H](Cc1c[nH]cn1)NC(=O)[C@@H](N)Cc1c[nH]cn1)C(=O)NCC(=O)N[C@@H](C)C(=O)N[C@H](C(=O)N[C@@H](CC(C)C)C(=O)N[C@@H](CCCCN)C(=O)N[C@H](C(=O)N[C@@H](CC(C)C)C(=O)N[C@H](C(=O)N[C@H](C(=O)NCC(=O)N[C@@H](Cc1ccc(O)cc1)C(=O)N[C@@H](C)C(=O)N[C@@H](CCCNC(=N)N)C(=O)N[C@@H](C)C(=O)N[C@@H](C)C(=O)N[C@@H](C)C(=O)N[C@@H](CCCNC(=N)N)C(=O)N[C@@H](CCC(N)=O)C(=O)N[C@@H](C)C(=O)N[C@@H](CCCNC(=N)N)C(=O)N[C@@H](C)C(=O)O)[C@@H](C)O)[C@@H](C)O)C(C)C)C(C)C` [His-CM18-PTD4]: in the assay with HeLa cells [1], the “co-delivery of GFP-NLS and mCherry-NLS (microscopy)” value was “successfully delivered together to the nucleus”. Besides, the “HOXB4-WT nuclear delivery (immuno-labelling)” value with HeLa cells [2] is “HOXB4-WT was successfully delivered to the nucleus after 30 min”. The “in vivo delivery of GFP-NLS to cell nuclei” value in the assay with rat parietal cortex is “delivery of the GFP-NLS in the nucleus of cells from the deeper layers of the parietal cortex (injection site) to the corpus callus and the dorsal level of the striatum (putamen)”.

Values taken from patent US12286632B2, “Rationally-designed synthetic peptide shuttle agents for delivering polypeptide cargos from an extracellular space to the cytosol and/or nucleus of a target eukaryotic cell, uses thereof, methods and kits relating to same” (Feldan Bio Inc., priority 2016, dated 2025).
